This passage reports IC50 results from patent US9783536B2, “Nitrogen-containing heterocyclic compound or salt thereof” (FUJIFILM Corporation, priority 2013, dated 2017).

Counter-ions that a name gives are not always drawn.

One test concerns the target T1, human PI3Kα protein (Homo sapiens, UniProt P42336).
T1 construct: purchased Carna Biosciences, Inc; host or cells: baculovirus expression system
The test is described as follows: PI3Kα enzyme assay (ADP-Glo). The test is classed as biochemical. As to conditions: read-out: PI3Kα enzyme inhibitory activity. The protocol: In a PI3Kα enzyme assay, a product (manufactured by Carna Biosciences, Inc.) obtained by biotinylating a human PI3Kα protein produced by using a baculovirus expression system was used. In addition, in the detection of enzyme activity, ADP-GLO KINASE ASSAY (trade name, manufactured by PROMEGA Corporation) was used.
10 μL of a reaction liquid (4.5 nmol/L PI3Kα, 40 mmol/L Tris-HCl, 20 mmol/L MgCl2, 0.1% BSA, pH 7.5) including the human PI3Kα protein and a test compound having a predetermined concentration was allowed to stand at room temperature for 15 minutes. Then, 5 μL of a mixture liquid of L-α-phosphatidylinositol 4,5-diphosphate (PIP2) (manufactured by Sigma-Aldrich Co. LLC.) and ATP (manufactured by Sigma-Aldrich Co. LLC.), which are substrates, was added thereto such that final concentrations thereof became 50 μmol/L and 100 μmol/L, respectively, and an enzyme reaction was performed by allowing to stand at 25° C. for 60 minutes.
After the reaction, the enzyme reaction was stopped by adding 15 μL of an ADP-GLO REAGENT (trade name, manufactured by PROMEGA Corporation) thereto and allowing to stand at room temperature for 60 minutes. Then, 30 μL of a KINASE DETECTION REAGENT (trade name, manufactured by PROMEGA Corporation) was added thereto, followed by allowing to stand at room temperature for 40 minutes, and ADP produced by the enzyme reaction was quantified by emission intensity.
ENVISION (trade name, manufactured by Perkin Elmer Inc.) was used for the measurement of the emission intensity.
(§1) The inhibitory activities of the compounds were evaluated using IC50 (50% inhibitory concentration). The IC50 was calculated using XLFIT (trade name, manufactured by ID Business Solutions).
Background: ADP-Glo first removes unused ATP, then detects ADP through luciferase.

In test [1] the target is T2, GST fusion human ERK2 protein (Homo sapiens, UniProt P28482).
T2 construct: purchased Carna Biosciences, Inc; host or cells: E. coli expression system
The test is described as follows: ERK2 enzyme assay (2). Type of test: biochemical. As to conditions: ERK2 enzyme assay (2); read-out: ERK2 enzyme inhibitory activity (2). The protocol:
In an ERK2 enzyme assay, GLUTATHIONE S-TRANSFERASE (GST) FUSION HUMAN ERK2 PROTEIN (manufactured by Carna Biosciences, Inc.), which was produced by using an E. coli expression system, was used.
12 μL of a reaction liquid (1.25 nmol/L ERK2, 100 mmol/L Hepes, 10 mmol/L MgCl2, 1.5 mmol/L DTT, 0.003% Brij35, pH 7.5) including ERK2 protein and a test compound having a predetermined concentration was allowed to stand at room temperature for 15 minutes. Then, 3 μL of a mixture liquid of FL-PEPTIDE8 (5-FAM-IPTSPITTTYFFFKKK-COOH) (manufactured by Caliper Life Sciences), which is substrate peptide, and ATP (manufactured by Sigma-Aldrich Co. LLC.) was added thereto such that the final concentrations thereof became 4.25 μmol/L and 1 mmol/L, respectively, and an enzyme reaction was performed by allowing to stand at 25° C. for 120 minutes.
After the reaction, the enzyme reaction was stopped by adding 30 μL of a reaction stopper liquid (100 mmol/L HEPES, 11.2 mmol/L EDTA, 5.6% Brij35, pH 7.5) including a 0.5% COATING REAGENT 8 (trade name, manufactured by Perkin Elmer Inc.) thereto. Then, phosphorylated peptide and non-phosphorylated peptide were separated using LABCHIP EZ READER (trade name, manufactured by Caliper Life Sciences), and the porportion of the phosphorylated peptide was quantified.
as §1

T2 sequence (P28482 whole entry, the tested form may be a part): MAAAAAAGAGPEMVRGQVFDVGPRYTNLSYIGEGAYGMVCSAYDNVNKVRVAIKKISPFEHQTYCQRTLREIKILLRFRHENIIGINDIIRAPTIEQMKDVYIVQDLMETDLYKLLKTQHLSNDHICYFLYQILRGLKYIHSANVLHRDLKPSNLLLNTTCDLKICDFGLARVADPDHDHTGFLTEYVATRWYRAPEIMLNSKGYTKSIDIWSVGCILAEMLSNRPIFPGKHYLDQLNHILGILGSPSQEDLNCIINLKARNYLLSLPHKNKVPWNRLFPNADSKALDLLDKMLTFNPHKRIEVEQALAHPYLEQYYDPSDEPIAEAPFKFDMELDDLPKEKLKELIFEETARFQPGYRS
T1 sequence (P42336 whole entry): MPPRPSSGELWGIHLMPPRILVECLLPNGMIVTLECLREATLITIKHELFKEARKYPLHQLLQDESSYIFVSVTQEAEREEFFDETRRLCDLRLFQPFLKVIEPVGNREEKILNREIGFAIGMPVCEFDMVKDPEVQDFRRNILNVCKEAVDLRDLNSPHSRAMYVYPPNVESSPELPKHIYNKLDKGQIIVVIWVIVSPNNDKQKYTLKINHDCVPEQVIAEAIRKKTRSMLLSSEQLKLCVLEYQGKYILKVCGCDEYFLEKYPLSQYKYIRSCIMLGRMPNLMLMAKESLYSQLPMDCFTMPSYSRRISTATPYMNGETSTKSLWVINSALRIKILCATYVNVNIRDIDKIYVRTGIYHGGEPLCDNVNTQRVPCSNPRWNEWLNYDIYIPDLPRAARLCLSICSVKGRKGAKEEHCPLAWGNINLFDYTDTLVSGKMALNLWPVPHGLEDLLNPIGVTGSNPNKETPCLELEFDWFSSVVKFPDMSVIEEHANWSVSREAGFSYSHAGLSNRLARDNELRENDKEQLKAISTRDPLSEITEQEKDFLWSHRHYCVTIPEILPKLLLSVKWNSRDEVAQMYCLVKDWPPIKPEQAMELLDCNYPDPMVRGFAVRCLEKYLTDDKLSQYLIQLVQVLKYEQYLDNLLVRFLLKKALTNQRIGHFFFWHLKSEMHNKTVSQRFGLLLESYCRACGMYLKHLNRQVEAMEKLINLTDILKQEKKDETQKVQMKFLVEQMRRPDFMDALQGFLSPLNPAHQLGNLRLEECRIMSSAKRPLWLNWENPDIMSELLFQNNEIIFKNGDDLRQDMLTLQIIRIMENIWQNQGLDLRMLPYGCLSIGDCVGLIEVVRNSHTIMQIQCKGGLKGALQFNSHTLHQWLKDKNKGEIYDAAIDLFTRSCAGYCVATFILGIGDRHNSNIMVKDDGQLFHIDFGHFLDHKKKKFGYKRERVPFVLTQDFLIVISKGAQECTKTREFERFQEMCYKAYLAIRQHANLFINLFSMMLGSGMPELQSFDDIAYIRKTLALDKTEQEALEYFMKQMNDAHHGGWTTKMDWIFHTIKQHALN
T1 sequence (P27986 whole entry partner): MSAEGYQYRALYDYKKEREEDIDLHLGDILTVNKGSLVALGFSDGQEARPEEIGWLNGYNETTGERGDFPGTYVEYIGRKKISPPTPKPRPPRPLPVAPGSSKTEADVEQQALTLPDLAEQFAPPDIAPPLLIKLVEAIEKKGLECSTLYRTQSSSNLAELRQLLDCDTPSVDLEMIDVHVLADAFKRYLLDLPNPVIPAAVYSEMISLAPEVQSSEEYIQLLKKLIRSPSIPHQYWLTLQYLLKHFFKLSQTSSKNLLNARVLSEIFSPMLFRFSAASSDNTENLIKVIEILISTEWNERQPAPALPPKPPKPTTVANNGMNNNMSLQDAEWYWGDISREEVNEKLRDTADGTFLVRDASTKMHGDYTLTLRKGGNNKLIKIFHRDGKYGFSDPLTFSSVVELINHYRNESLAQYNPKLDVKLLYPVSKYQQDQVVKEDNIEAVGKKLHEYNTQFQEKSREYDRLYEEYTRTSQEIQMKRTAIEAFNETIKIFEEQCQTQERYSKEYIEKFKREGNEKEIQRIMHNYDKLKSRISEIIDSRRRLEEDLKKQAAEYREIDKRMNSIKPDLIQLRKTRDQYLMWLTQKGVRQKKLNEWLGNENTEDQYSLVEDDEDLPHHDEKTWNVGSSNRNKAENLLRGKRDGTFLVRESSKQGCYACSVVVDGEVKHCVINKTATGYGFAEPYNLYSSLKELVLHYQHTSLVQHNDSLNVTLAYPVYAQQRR

`COCC(COC)Cn1cc(-c2cnc3ccc(Nc4cc(C(C)C)cnn4)nc3c2)cn1` [Example 0484]: the IC50 (on human PI3Kα protein; in test [1]) was < 1 µM in each case.
As for `CC(C)c1cnnc(Nc2ccc3ncc(-c4cnn(CC5CCNCC5)c4)cc3n2)c1` [Example 0485, trifluoroacetic acid salt of N-(5-isopropylpyridazin-3-yl)-7-(1-(piperidin-4-ylmethyl)-1H-pyrazol-4-yl)-1,5-naphthyridine-2-amine], the IC50 (at human PI3Kα protein; in test [1]) was < 1 µM throughout.
For `CC(C)c1cnnc(Nc2ccc3ncc(-c4cnn(CCC5CCNCC5)c4)cc3n2)c1` [Example 0488, hydrochloric acid salt of N-(5-isopropylpyridazin-3-yl)-7-(1-(2-(piperidin-4-yl)ethyl)-1H-pyrazol-4-yl)-1,5-naphthyridine-2-amine], the IC50 (at human PI3Kα protein; in test [1]) was < 1 µM each time.
Take `Cc1ccnnc1Nc1ccc2ncc(-c3cnn(C)c3)cc2n1` [Example 0489]: the IC50 lay within 10 to 50 µM on human PI3Kα protein and 1 to 10 µM in test [1].
`Cc1cn(-c2cnc3ccc(Nc4cc(C(C)C)cnn4)nc3c2)cn1` [Example 0494, N-(5-isopropylpyridazin-3-yl)-7-(4-methyl-1H-imidazol-1-yl)-1,5-naphthyridine-2-amine]: the IC50 (on human PI3Kα protein; in test [1]) was < 1 µM throughout.
As for `COc1cnnc(Nc2ccc3ncc(-c4cnn(C)c4)cc3n2)c1` [Example 0495, N-(5-methoxypyridazin-3-yl)-7-(1-methyl-1H-pyrazol-4-yl)-1,5-naphthyridine-2-amine], the IC50 (at human PI3Kα protein; in test [1]) was < 1 µM in each case.
Turning to `COc1cnnc(Nc2ccc3ncc(-c4cnn(CCCN5CCOCC5)c4)cc3n2)c1` [Example 0496, N-(5-methoxypyridazin-3-yl)-7-(1-(3-morpholinopropyl)-1H-pyrazol-4-yl)-1,5-naphthyridine-2-amine], the IC50 (at human PI3Kα protein; in test [1]) was < 1 µM in each case.
As for `CC(C)c1cnnc(Nc2ccc3ncc(-n4cnc(CO)c4)cc3n2)c1` [Example 0497, (1-(6-((5-isopropylpyridazin-3-yl)amino)-1,5-naphthyridin-3-yl)-1H-imidazol-4-yl)methanol], the IC50 is 1 to 10 µM on human PI3Kα protein and < 1 µM in test [1].
The matching figures for `CC(C)c1cnnc(Nc2ccc3ncc(-c4cnc(N5CCN(C)CC5)s4)cc3n2)c1` [Example 0498, N-(5-isopropylpyridazin-3-yl)-7-(2-(4-methylpiperazin-1-yl)thiazol-5-yl)-1,5-naphthyridine-2-amine]: < 1 µM and < 1 µM.
The matching figures for `CCOc1cnnc(Nc2ccc3ncc(-c4cnn(C)c4)cc3n2)c1` [Example 0499]: < 1 µM and < 1 µM.
Turning to `CC(C)Oc1cnnc(Nc2ccc3ncc(-c4cnn(CCCN5CCOCC5)c4)cc3n2)c1` [Example 0501], the IC50 (at human PI3Kα protein; in test [1]) was 1 to 10 µM each time.
Turning to `CC(C)c1cnnc(Nc2ccc3ncc(-c4cnc(N5CCNCC5)s4)cc3n2)c1` [Example 0502], the IC50 (at human PI3Kα protein; in test [1]) was < 1 µM in each case.
Take `CC(C)c1cnnc(Nc2ccc3ncc(-n4cnc(CCN(C)C)c4)cc3n2)c1` [Example 0503, 7-(4-(2-(Dimethylamino)ethyl)-1H-imidazol-1-yl)-N-(5-isopropylpyridazin-3-yl)-1,5-naphthyridine-2-amine]: the IC50 (on human PI3Kα protein; in test [1]) was < 1 µM each time.
On to `CC(=O)NCCc1cn(-c2cnc3ccc(Nc4cc(C(C)C)cnn4)nc3c2)cn1` [Example 0504, N-(2-(1-(6-((5-isopropylpyridazin-3-yl)amino)-1,5-naphthyridin-3-yl)-1H-imidazol-4-yl)ethyl)acetamide], for which the IC50 (at human PI3Kα protein; in test [1]) was < 1 µM in each case.
Take `CC(C)c1cnnc(Nc2ccc3ncc(-n4cnc(CCNC(=O)OC(C)(C)C)c4)cc3n2)c1` [Example 0505, tert-Butyl (2-(1-(6-((5-isopropylpyridazin-3-yl)amino)-1,5-naphthyridin-3-yl)-1H-imidazol-4-yl)ethyl)carbamate]: the IC50 on human PI3Kα protein was 1 to 10 µM; in test [1], < 1 µM.
The matching figures for `CC(C)c1cnnc(Nc2ccc3ncc(-n4cnc(CCN)c4)cc3n2)c1` [Example 0506, Hydrochloric acid salt of 7-(4-(2-aminoethyl)-1H-imidazol-1-yl)-N-(5-isopropylpyridazin-3-yl)-1,5-naphthyridine-2-amine]: 1 to 10 µM and < 1 µM.
The matching figures for `CC(C)c1cnnc(Nc2ccc3ncc(-c4cnc(OC5CCN(C)CC5)s4)cc3n2)c1` [Example 0507]: < 1 µM and < 1 µM.
`CC(C)c1cnnc(Nc2ccc3ncc(-n4cnc(CC#N)c4)cc3n2)c1` [Example 0508, 2-(1-(6-((5-Isopropylpyridazin-3-yl)amino)-1,5-naphthyridin-3-yl)-1H-imidazol-4-yl)acetonitrile]: the IC50 (on human PI3Kα protein; in test [1]) was < 1 µM in each case.
For the molecule `CC(C)c1cnnc(Nc2ccc3ncc(-c4cncn4C)cc3n2)c1` [Example 0509, N-(5-isopropylpyridazin-3-yl)-7-(1-methyl-1H-imidazol-5-yl)-1,5-naphthyridine-2-amine], the IC50 was 1 to 10 µM on human PI3Kα protein and < 1 µM in test [1].
Turning to `CC(C)c1cnnc(Nc2ccc3ncc(N4CCC(CO)CC4)cc3n2)c1` [Example 0511, (1-(6-((5-Isopropylpyridazin-3-yl)amino)-1,5-naphthyridin-3-yl)piperidin-4-yl)methanol], the results for the IC50 (on human PI3Kα protein; in test [1]) were 1 to 10 µM and < 1 µM, respectively.
The matching figures for `CC(C)c1cnnc(Nc2ccc3ncc(-n4cnc5ccccc54)cc3n2)c1` [Example 0512]: 1 to 10 µM and < 1 µM.
The matching figures for `CCc1nc(C)cn1-c1cnc2ccc(Nc3cc(C(C)C)cnn3)nc2c1` [Example 0514]: 1 to 10 µM and < 1 µM.
Regarding `CN(C)c1cnnc(Nc2ccc3ncc(-c4cnn(C)c4)cc3n2)c1` [Example 0518], the IC50 (on human PI3Kα protein; in test [1]) was < 1 µM throughout.
For the molecule `CC(C)c1cnnc(Nc2ccc3ncc(-c4cnn(CC5CCCCC5)c4)cc3n2)c1` [Example 0519, 7-(1-(Cyclohexylmethyl)-1H-pyrazol-4-yl)-N-(5-isopropylpyridazin-3-yl)-1,5-naphthyridine-2-amine], the IC50 at human PI3Kα protein is 1 to 10 µM; in test [1], < 1 µM.
For `Cn1cc(-c2cnc3ccc(Nc4cc(N5CCCC5)cnn4)nc3c2)cn1` [Example 0520], the IC50 at human PI3Kα protein was 1 to 10 µM; in test [1], < 1 µM.
The matching figures for `CC(C)c1cnnc(Nc2ccc3ncc(-c4cnn(C[C@H]5CC[C@H](O)CC5)c4)cc3n2)c1` [Example 0521]: < 1 µM and < 1 µM.
For the molecule `CO[C@H]1CC[C@H](Cn2cc(-c3cnc4ccc(Nc5cc(C(C)C)cnn5)nc4c3)cn2)CC1` [Example 0522, N-(5-isopropylpyridazin-3-yl)-7-(1-(((1r,4r)-4-methoxycyclohexyl)methyl)-1H-pyrazol-4-yl)-1,5-naphthyridine-2-amine], the IC50 (on human PI3Kα protein; in test [1]) was < 1 µM throughout.
Consider `CCCN(CCC)c1cnnc(Nc2ccc3ncc(-c4cnn(C)c4)cc3n2)c1` [Example 0523], for which the IC50 (at human PI3Kα protein; in test [1]) was < 1 µM in each case.
